Experimental data from US20240158412A1 (Faxian Therapeutics, LLC, priority 2021, published 2024).

Target: USP7 (Homo sapiens, UniProt Q93009)
Assay: biochemical
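Note: fluorescence intensity readout of USP7 enzymatic activity, reaction incubated 90 min at room temperature.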

Sequence of USP7 (Q93009 whole entry): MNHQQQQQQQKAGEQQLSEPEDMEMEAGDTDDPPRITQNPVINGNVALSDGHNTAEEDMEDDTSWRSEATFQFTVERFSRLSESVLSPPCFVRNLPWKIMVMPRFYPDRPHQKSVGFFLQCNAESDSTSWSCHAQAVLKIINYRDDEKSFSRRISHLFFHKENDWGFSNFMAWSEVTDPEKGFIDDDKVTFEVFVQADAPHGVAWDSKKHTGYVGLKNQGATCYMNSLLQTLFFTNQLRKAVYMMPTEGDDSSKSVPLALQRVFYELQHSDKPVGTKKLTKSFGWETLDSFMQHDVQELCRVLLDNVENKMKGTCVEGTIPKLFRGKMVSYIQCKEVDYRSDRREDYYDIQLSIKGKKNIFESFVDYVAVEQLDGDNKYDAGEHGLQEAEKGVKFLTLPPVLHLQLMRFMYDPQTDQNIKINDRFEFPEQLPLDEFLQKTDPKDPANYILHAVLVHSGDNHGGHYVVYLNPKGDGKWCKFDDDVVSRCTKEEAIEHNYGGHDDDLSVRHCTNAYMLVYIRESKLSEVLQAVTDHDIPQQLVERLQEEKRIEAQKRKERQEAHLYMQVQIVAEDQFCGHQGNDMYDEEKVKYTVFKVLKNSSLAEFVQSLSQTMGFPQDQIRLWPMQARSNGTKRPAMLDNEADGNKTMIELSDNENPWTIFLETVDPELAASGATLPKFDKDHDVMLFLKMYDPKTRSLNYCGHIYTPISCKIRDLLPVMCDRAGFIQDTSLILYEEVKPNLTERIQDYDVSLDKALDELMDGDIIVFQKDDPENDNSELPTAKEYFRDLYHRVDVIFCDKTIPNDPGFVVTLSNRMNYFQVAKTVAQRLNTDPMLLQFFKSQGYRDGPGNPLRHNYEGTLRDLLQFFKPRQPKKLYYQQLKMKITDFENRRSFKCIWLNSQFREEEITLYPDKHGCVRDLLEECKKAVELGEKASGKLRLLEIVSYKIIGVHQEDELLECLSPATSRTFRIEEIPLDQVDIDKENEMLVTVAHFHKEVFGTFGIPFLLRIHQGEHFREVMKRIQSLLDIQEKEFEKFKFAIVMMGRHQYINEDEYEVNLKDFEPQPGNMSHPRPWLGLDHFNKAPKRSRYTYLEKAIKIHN

| Structure (SMILES) | IC50 [nM] |
| --- | --- |
| O=C1CCC(=O)N1Cc1cc2nccc(-c3cc(Cl)cc4c3N([C@H]3CCNC3)C[C@H]3C[C@@H]43)c2s1 (single isomer, unassigned) [Example 113d] | < 10 |
| CC1(C)C[C@H](N2CCCc3cc(Cl)cc(-c4ccnc5cc(Cn6c(=O)ccn(CC(F)(F)F)c6=O)sc45)c32)CN1 (single isomer, unassigned) [Example 118b] | < 10 |
| CC1(C)CC(N2CCOc3cc(C#N)cc(-c4ccnc5cc(Cn6c(=O)ccn(CC(F)(F)F)c6=O)sc45)c32)CN1 (single isomer, unassigned) [Example 133a] | < 10 |
| CC1(C)CC(N2CCOc3cc(C#N)cc(-c4ccnc5cc(Cn6c(=O)ccn(CC(F)(F)F)c6=O)sc45)c32)CN1 (single isomer, unassigned) [Example 133b] | 101 to 1000 |
| O=C1CCC(=O)N1Cc1cc2nccc(-c3cc(Cl)cc4c3N([C@H]3CNC5(CCC5)C3)CCC4)c2s1 (single isomer, unassigned) [Example 139a] | 10 to 100 |
| O=C1CCC(=O)N1Cc1cc2nccc(-c3cc(Cl)cc4c3N([C@@H]3CNC5(CCC5)C3)CCC4)c2s1 (single isomer, unassigned) [Example 139b] | < 10 |
| O=C1CCC(=O)N1Cc1cc2ncnc(-c3cc(Cl)cc4c3N(C3CNC5(CCC5)C3)CCC4)c2s1 (single isomer, unassigned) [Example 161a] | < 10 |
| O=C1CCC(=O)N1Cc1cc2ncnc(-c3cc(Cl)cc4c3N(C3CNC5(CCC5)C3)CCC4)c2s1 (single isomer, unassigned) [Example 161b] | 101 to 1000 |
| O=c1ccn(C2CC2)c(=O)n1Cc1cc2nccc(-c3cc(C(F)(F)F)cc4c3N(C3CNC5(CCC5)C3)CCC4)c2s1 (single isomer, unassigned) [Example 162b] | 101 to 1000 |
| Cc1cnn(Cc2cc3nccc(-c4cc(C#N)cc5c4N(C4CNC6(CCC6)C4)CCC5)c3s2)c(=O)c1 (single isomer, unassigned) [Example 164a] | < 10 |
| Cc1cnn(Cc2cc3nccc(-c4cc(C#N)cc5c4N(C4CNC6(CCC6)C4)CCC5)c3s2)c(=O)c1 (single isomer, unassigned) [Example 164b] | 101 to 1000 |
| O=C1CCC(=O)N1Cc1cc2nccc(-c3cc(Cl)cc4c3N(C3CNC5(CCC5)C3)CCO4)c2s1 (single isomer, unassigned) [Example 171a] | 101 to 1000 |
| O=C1CCC(=O)N1Cc1cc2nccc(-c3cc(Cl)cc4c3N(C3CNC5(CCC5)C3)CCO4)c2s1 (single isomer, unassigned) [Example 171b] | < 10 |
| O=C1CCC(=O)N1Cc1cc2nccc(-c3cc(Cl)cc4c3N(C3CNC5(CCC5)C3)C(=O)CO4)c2s1 (single isomer, unassigned) [Example 173a] | 10 to 100 |
| O=C1CCC(=O)N1Cc1cc2nccc(-c3cc(Cl)cc4c3N(C3CNC5(CCC5)C3)C(=O)CO4)c2s1 (single isomer, unassigned) [Example 173b] | 101 to 1000 |
| O=C1CCC(=O)N1Cc1cc2nccc(-c3cc(C(F)(F)F)cc4c3N(C3CNC5(CCC5)C3)CCO4)c2s1 (single isomer, unassigned) [Example 175a] | 101 to 1000 |
| O=C1CCC(=O)N1Cc1cc2nccc(-c3cc(Cl)cc4c3N([C@@H]3CCC5(CCCN5)C3)CCC4)c2s1 (single isomer, unassigned) [Example 179a] | 10 to 100 |
| O=C1CCC(=O)N1Cc1cc2nccc(-c3cc(Cl)cc4c3N([C@@H]3CC[C@@]5(CCCN5)C3)CCC4)c2s1 (single isomer, unassigned) [Example 179b] | 10 to 100 |
| O=C1CCC(=O)N1Cc1cc2nccc(-c3cc(Cl)cc4c3N([C@@H]3CNC(CO)(CO)C3)CCC4)c2s1 (single isomer, unassigned) [Example 181a] | < 10 |
| O=C1CCC(=O)N1Cc1cc2nccc(-c3cc(Cl)cc4c3N([C@H]3CNC(CO)(CO)C3)CCC4)c2s1 (single isomer, unassigned) [Example 181b] | 10 to 100 |
| CC(C)(C)c1cnn(Cc2cc3nccc(-c4cc(C#N)cc5c4N([C@@H]4CN[C@@H](CO)C4)C[C@@H]4C[C@H]54)c3s2)c(=O)c1 (single isomer, unassigned) [Example 192b] | < 10 |
| CC1(c2cnn(Cc3cc4nccc(-c5cc(C#N)cc6c5N([C@@H]5CN[C@@H](CO)C5)C[C@H]5C[C@@H]65)c4s3)c(=O)c2)CC1 (single isomer, unassigned) [Example 195a] | < 10 |
| COC(=O)[C@]1(C)C[C@@H](N2CCCc3cc(Cl)cc(-c4ccnc5cc(CN6C(=O)CCC6=O)sc45)c32)CN1 (single isomer, unassigned) [Example 202] | 10 to 100 |
| COC(=O)[C@@]1(C)C[C@H](N2CCCc3cc(Cl)cc(-c4ccnc5cc(CN6C(=O)CCC6=O)sc45)c32)CN1 (single isomer, unassigned) [Example 203] | < 10 |
| O=C1C2CC2C(=O)N1Cc1cc2nccc(-c3cc(Cl)cc4c3N([C@@H]3CNC(CO)(CO)C3)CCO4)c2s1 (single isomer, unassigned) [Example 212b] | 10 to 100 |
| O=C1CCC(=O)N1Cc1cc2nccc(-c3cc(Cl)cc4c3N([C@H]3CO[C@@H](CO)C3)CCO4)c2s1 (single isomer, unassigned) [Example 227a] | > 1000 |
| O=C1CCC(=O)N1Cc1cc2nccc(-c3cc(Cl)cc4c3N(C3CO[C@@H](CO)C3)CCO4)c2s1 (single isomer, unassigned) [Example 227c] | > 1000 |
| O=C1CCC(=O)N1Cc1cc2nccc(-c3cc(Cl)cc4c3C3(CCC4)CNCCO3)c2s1 (single isomer, unassigned) [Example 229a] | 10 to 100 |
| O=C1CCC(=O)N1Cc1cc2nccc(-c3cc(Cl)cc4c3C3(CCC4)CNCCO3)c2s1 (single isomer, unassigned) [Example 229b] | > 1000 |

Continued, values first:

| IC50 [nM] | Structure (SMILES) |
| --- | --- |
| 10 to 100 | CC1(C)C[C@@H](N2CCCc3cc(Cl)cc(-c4ccnc5cc(Cn6c(=O)ccn(CC(F)(F)F)c6=O)sc45)c32)CN1 (single isomer, unassigned) [Example 118a] |
| < 10 | Cc1cnn(Cc2cc3nccc(-c4cc(C#N)cc5c4N(C4CNC(C)(C)C4)CCC5)c3s2)c(=O)c1 (single isomer, unassigned) [Example 120a] |
| 101 to 1000 | Cc1cnn(Cc2cc3nccc(-c4cc(C#N)cc5c4N(C4CNC(C)(C)C4)CCC5)c3s2)c(=O)c1 (single isomer, unassigned) [Example 120b] |
| 10 to 100 | O=C1CCC(=O)N1Cc1cc2nccc(-c3cc(Cl)cc4c3N([C@@H]3CN(C[C@H](O)C(F)(F)F)C5(CCC5)C3)CCC4)c2s1 (single isomer, unassigned) [Example 143a] |
| 101 to 1000 | O=C1CCC(=O)N1Cc1cc2nccc(-c3cc(Cl)cc4c3N([C@@H]3CN(C[C@@H](O)C(F)(F)F)C5(CCC5)C3)CCC4)c2s1 (single isomer, unassigned) [Example 143b] |
| < 10 | O=c1ccn(C2CC2)c(=O)n1Cc1cc2nccc(-c3cc(C(F)(F)F)cc4c3N(C3CNC5(CCC5)C3)CCC4)c2s1 (single isomer, unassigned) [Example 162a] |
| < 10 | O=C1CCC(=O)N1Cc1cc2nccc(-c3cc(C(F)(F)F)cc4c3N(C3CNC5(CCC5)C3)CCO4)c2s1 (single isomer, unassigned) [Example 175b] |
| 101 to 1000 | Cc1ccnn(Cc2cc3nccc(-c4cc(C(F)(F)F)cc5c4N(C4CNC6(CCC6)C4)CCO5)c3s2)c1=O (single isomer, unassigned) [Example 176a] |
| < 10 | O=C1CCC(=O)N1Cc1cc2nccc(-c3cc(Cl)cc4c3N(C3CNC5(CC(F)C5)C3)CCC4)c2s1 (single isomer, unassigned) [Example 177a] |
| < 10 | CC(C)(C)c1cnn(Cc2cc3nccc(-c4cc(C#N)cc5c4N([C@@H]4CN[C@@H](CO)C4)C[C@H]4C[C@@H]54)c3s2)c(=O)c1 (single isomer, unassigned) [Example 192a] |
| > 1000 | CC(C)(C)c1cnn(Cc2cc3nccc(-c4cc(C#N)cc5c4N([C@H]4CN[C@@H](CO)C4)C[C@@H]4C[C@H]54)c3s2)c(=O)c1 (single isomer, unassigned) [Example 193a] |
| 10 to 100 | CC(C)(C)c1cnn(Cc2cc3nccc(-c4cc(C#N)cc5c4N([C@H]4CN[C@@H](CO)C4)C[C@H]4C[C@@H]54)c3s2)c(=O)c1 (single isomer, unassigned) [Example 193b] |
| < 10 | CC1(c2cnn(Cc3cc4nccc(-c5cc(C#N)cc6c5N([C@@H]5CN[C@@H](CO)C5)C[C@@H]5C[C@H]65)c4s3)c(=O)c2)CC1 (single isomer, unassigned) [Example 195b] |
| 101 to 1000 | COC(=O)[C@@]1(C)C[C@@H](N2CCCc3cc(Cl)cc(-c4ccnc5cc(CN6C(=O)CCC6=O)sc45)c32)CN1 (single isomer, unassigned) [Example 201] |
| 101 to 1000 | COC(=O)[C@]1(C)C[C@H](N2CCCc3cc(Cl)cc(-c4ccnc5cc(CN6C(=O)CCC6=O)sc45)c32)CN1 (single isomer, unassigned) [Example 204] |
| < 10 | O=C1C2CC2C(=O)N1Cc1cc2nccc(-c3cc(Cl)cc4c3N([C@H]3CNC(CO)(CO)C3)CCO4)c2s1 (single isomer, unassigned) [Example 212a] |
| 101 to 1000 | O=C1CCC(=O)N1Cc1cc2nccc(-c3cc(Cl)cc4c3N([C@H]3CO[C@H](CO)C3)CCO4)c2s1 (single isomer, unassigned) [Example 227b] |
| < 10 | O=c1ccn(CC(F)F)c(=O)n1Cc1cc2nccc(-c3cc(Cl)cc4c3N(C3CCNC3)C[C@H]3C[C@@H]43)c2s1 (stereo in doubt) [Example 115, 3-[[7-[(1aS,3R,7bR)-6-chloro-3-pyrrolidin-3-yl-1,1a,2,7b-tetrahydrocyclopropa[c]quinolin-4-yl]thieno[3,2-b]pyridin-2-yl]methyl]-1-(2,2-difluoroethyl)pyrimidine-2,4-dione] |
| < 10 | Cn1ccc(=O)n(Cc2cc3nccc(-c4cc(C#N)cc5c4N(C4CNC(C)(C)C4)CCC5)c3s2)c1=O (stereo in doubt) [Example 121, (S)-1-(5,5-dimethylpyrrolidin-3-yl)-8-(2-((3-methyl-2,6-dioxo-3,6-dihydropyrimidin-1(2H)-yl)methyl)thieno[3,2-b]pyridin-7-yl)-1,2,3,4-tetrahydroquinoline-6-carbonitrile] |
